Results reported in a melting point compilation (Tetko et al.; mined from patent text by program, amines drawn as free bases though some values may be those of a salt).

| Compound | melting point |
| --- | --- |
| O=C(CC(=O)C(F)(F)Cl)c1ccc(Cl)cc1 | 50 to 51 °C |
| COc1ccc2c(CC3CCN(CCc4c(C)sc5c4CCN(C(C)=O)C5)CC3)noc2c1OC | 197 to 200 °C |
| Cn1ncnc1COc1nn2c(-c3ccccc3)nnc2cc1C1CCC1 | 228 °C |
| CCCCOCCOc1ccc(-c2ccc3c(c2)C=C(C(=O)Nc2ccc(C(O)c4ccccn4)cc2)CCS3(=O)=O)cc1 (configuration not stated) | 173 to 174 °C |
| O=C(Nc1ccc(Cl)c(Cl)c1)NS(=O)(=O)c1ccc2c(c1)CCC2 | 156 to 158 °C |
| NNC1=NCc2c[nH]c3cccc1c23 | 188 to 189 °C |
| CO/N=C(\C(=O)O)c1ccccc1COc1cc(C)ccc1C | 112 to 114 °C |
| CN1CCN(C(=O)Oc2ccc(C[C@H](NC(=O)Nc3ccccc3S(=O)(=O)c3ccccc3)C(=O)O)cc2)CC1 | 160 °C |
| CC(=O)NCC1CN(c2ccc(N3CCC(C)(O)C(C)(C)C3)c(F)c2)C(=O)O1 (configuration not stated) | 114 to 116 °C |
| O=C(O)c1cc(-n2c(-c3ccccc3)cc3c2-c2ccccc2CC3)ccc1O | 215 to 218 °C |
| Nc1cc(C(=O)NCC(=O)O)ccc1F | 150 to 152 °C |
| COC(=O)C(/C(=C\c1ccccc1)C(N)=O)=C(\C)c1cc(OC)c(OC)c(OC)c1 | 118 to 120 °C |
| COC(=O)Cc1nnc2n1-c1ccc(Cl)cc1C(c1ccccc1)=NC2 | 202 to 204 °C |
| CCCCc1c(/C=C/C(=O)NCCCCCCc2cncnc2)cc(OC)c2ccccc12 | 128 to 129 °C |
| COc1ccc(C(=C(C=O)c2nnnn2C)c2ccc(OC)cc2)cc1 | 130 to 131 °C |
| O=C1OC(CN2CCC(O)(c3ccccc3)CC2)CN1c1ccccc1 (configuration not stated) | 121 to 122 °C |
| C#CC(C)(C)NC(=O)c1cnc(N2CCC(N3C(=O)OCc4ccccc43)CC2)c(Cl)c1 | 135 to 138 °C |
| O=[N+]([O-])CCc1ccc2ccccc2c1 | 59 to 60 °C |
| O=C(c1ccc(O)c(O)c1)c1cccc(C(Cc2ccccc2)Cc2ccccc2)n1 | 141 to 143 °C |
| COC(=O)CNc1ccc(CNC(=O)C2Cc3ccccc3N2S(=O)(=O)c2ccc(-c3cccc(C(F)(F)F)c3)cc2)cc1 (configuration not stated) | 85 °C |
| CC(C)(C)OC(=O)N1CCC(c2ccc(COc3ccc(S(C)(=O)=O)cc3)cn2)CC1 | 140 to 142 °C |
| Fc1cc(N2CCN(C3CCN(c4cccc5cccnc45)CC3)CC2)c2ncccc2c1 | 211 °C |
| CCN(CC)C(=O)Nc1ccc(S(=O)(=O)N2C(=O)C(NCCO)(c3ccccc3Cl)c3cc(Cl)ccc32)cc1 (configuration not stated) | 192 to 193 °C |
| O=[N+]([O-])c1ccc(-c2nc(-c3ccccc3)no2)o1 | 164 to 166 °C |

| Compound | melting point |
| --- | --- |
| COC(=O)CCCCCOc1ccc(NC(=O)CCCCCO)cc1 | 73 to 75.5 °C |
| O=C(O)Cc1cc([N+](=O)[O-])ccc1C(=O)O | 180 to 182 °C |
| CCc1nsc(NC(=O)C(C)c2ccc3oc(-c4c(Cl)cccc4Cl)nc3c2)c1Cl (configuration not stated) | 180 to 183 °C |
| O=C(NCC1(O)CCCCCC1)c1cc(-c2cccnc2N2CCC(C(=O)O)CC2)ccc1Cl | 117 to 119 °C |
| O=C(C(=Cc1cccc(C(F)(F)F)c1)C(=O)C1CC1)C1CC1 | 56 to 58 °C |
| COC(=O)C=Cc1ccc(OCc2nc(-c3ccc4ccccc4c3)oc2C)cc1 | 185 to 186 °C |
| O=C1CN2C(=O)C(c3ccccc3)c3cccc(c32)N1 (configuration not stated) | 235 °C |
| COc1cc(C2(O)NC(=O)c3cc(OCc4ccccc4)ccc32)cc(OC)c1OC (configuration not stated) | 187 to 189 °C |
| CN=C1SCC(O)(c2ccc(Cl)c(S(=O)(=O)NCC(C)OC)c2)N1C (configuration not stated) | 148 °C |
| CC(=Cc1cccc([N+](=O)[O-])c1)C(=O)Oc1ccc(Cl)cc1 | 102 °C |
| CCOC(=O)c1ncc2[nH]c3cccc(Oc4ccc(Cl)cn4)c3c2c1C | 194 to 196 °C |
| CC(C)(NS(=O)(=O)c1ccc2oc3cc(Cl)ccc3c2c1)C(=O)NO | 195 to 196 °C |
| O=C(O)c1ccc(-c2csc(-c3ccc(C(F)(F)F)cc3)n2)cc1 | 275 to 276 °C |
| NCCCc1cc(Nc2nc(-c3ccccc3)nc3ccccc23)[nH]n1 | 205 to 207 °C |
| Cc1ccccc1-c1cc(O)ccc1O | 65 to 68 °C |
| O=c1n(CCCF)nnn1-c1cc(Oc2ncccn2)c(Cl)cc1F | 111 to 113 °C |
| CCn1c(N)c(-c2ncc[nH]2)c(=O)c2ccc(C#CC(O)(c3ccccc3)C(F)(F)F)nc21 (configuration not stated) | 260 °C |
| CC(C)(C)OC(=O)Nc1ccc(CN2OCC(C)(C)C2=O)c(Cl)c1 | 124 to 126 °C |
| CN1CCN(C2(CNC(=O)c3ccc(Cl)c(Cl)c3)CCCCC2)CC1 | 143 to 146 °C |
| Cc1nnc2n1-c1ccc(Cl)cc1C(N1CCCCC1)=NC2 | 238 to 243 °C |
| CS(=O)(=O)C(=C1CN(C(c2ccccc2)c2ccccc2)C1)c1cccc([N+](=O)[O-])c1 | 184 °C |
| CN(Cc1cc(C(F)(F)F)cc(C(F)(F)F)c1)C(=O)c1c(-c2ccc(F)cc2)c2c(c(=O)n1C)CCCN2 | 226 to 228 °C |
| COC(=O)[C@H]1C[C@H]2C(=O)NCCN2C1 | 70 to 74 °C |
